Assay results reported in patent US9174991B2, “Crystalline form of pemetrexed disodium” (Azad Pharmaceutical Ingredients AG, priority 2009, dated 2015).
Structures can show the parent of a compound that is named as a salt. Where two headings read alike, the source gives them in different places.

What was measured:
[1] = 70° C., 5 mbar; for change in HPLC-purity upon vacuum drying (in words): up to 9 d
Description: (§1) To investigate the stability of the different forms of Pemetrexed Disodium a stability test concerning storage at different relative humidity, storage in the presence of light and stability under drying conditions was carried out.
Four samples were stored at 70° 5 mbar in laboratory vacuum oven. IPC were taken after 2 d, 9 d
(§2) HPLC analysis was done on an Agilent 1100 system equipped with DAD detector using a Zorbax SB-Phenyl column (150×4.6 mm, 3 μm). Measurements were done at 230 nm wavelengths at 25° C. using a flow of 1.0 mL/min and 8 min post-run time. […] Sample preparation: 10 mg sample in 25 mL water:ACN=1:1, 5 uL injection.

[2] = for H2O (KFT) / HPLC-purity (10.5 min) / PXRD / HPLC-purity: dark, air; for change in HPLC purity in any of the samples (in words): all relative humidities tested (5% to 70%)
[3] = for change in HPLC purity in the presence of light (in words) / change in color in the presence of light (in words): text says after 16 d
Description: as §1
The samples were stored in double PE plastic bags and exposed to daylight IT=20° C. to 25° C. IPCs were taken after 15 d.
as §2

[4] = starting material, before storage
Description: HPLC analysis was done on an Agilent 1100 system equipped with DAD detector using a Zorbax SB-Phenyl column (150×4.6 mm, 3 μm). Measurements were done at 230 nm wavelengths at 25° C. using a flow of 1.0 mL/min and 8 min post-run time. As mobile phase water containing 0.03% TFA and acetonitrile containing 0.025% TFA were used, solvents were HPLC grade. Sample preparation: 10 mg sample in 25 mL water:ACN=1:1, 5 uL injection. Retention time Pemetrexed Disodium: 10.3 min.
PXRD: Routine PXRD measurements were carried out on a Bruker AXS D8Advance diffractometer equipped with CuKα source with CuKβ filter and a VANTEC detector (Ser. No.: 202964). Measurement parameters: 3° 2theta to 39.9° 2theta, step time: 2s, step size: 0.022°, T=25° C., X-ray generator: 35 kV/40 mA.

[5] = Barnett et al., Organic Process Research & Development, 1999, 3, 184-188; cited from earlier work
[6] = 5% to 12% relative humidity, 2 d, measured 11.7% (Form A 5.8%), 23° C.
[7] = 5% to 12% relative humidity, 5 d, measured 9.5% (Form A 5.3%), 24° C.
[8] = 5% to 12% relative humidity, 9 d, measured 9% (Form A 6%), 24° C.
[9] = 5% to 12% relative humidity, 16 d, measured 8.5% (Form A 5.8%), 24° C.
[10] = 27% to 33% relative humidity, 2 d, measured 29.8% (Form A 28%), 23° C.
[11] = 27% to 33% relative humidity, 5 d, measured 29% (Form A 27%), 24° C.
[12] = 27% to 33% relative humidity, 9 d, measured 31% (Form A 30%), 24° C.
[13] = 27% to 33% relative humidity, 16 d, measured 30.4% (Form A 28.7%), 24° C.
[14] = 39% to 50% relative humidity, 2 d, measured 41.1% (Form A 39%), 23° C.
[15] = 39% to 50% relative humidity, 5 d, measured 42.8% (Form A 38.6%), 24° C.
[16] = 39% to 50% relative humidity, 9 d, measured 48% (Form A 47%), 24° C.
[17] = 39% to 50% relative humidity, 16 d, measured 47.3% (Form A 46.4%), 24° C.
[18] = 60% to 70% relative humidity, 2 d, measured 61%, 22° C. (Form A 54%, 23° C)
[19] = 60% to 70% relative humidity, 5 d, measured 63% (Form A 57%), 24° C.
[20] = 60% to 70% relative humidity, 9 d, measured 69% (Form A 68%), 24° C.
[21] = 60% to 70% relative humidity, 16 d, measured 66.9% (Form A 67.2%), 24° C.
[22] = daylight, listed as Pemetrexed Disodium Form IV
[23] = double PE plastic bags, daylight, 20° C. to 25° C., 15 d
[24] = 2 d, listed as Pemetrexed Disodium Heptahydrate

SMILES: Nc1nc(O)c2c(CCc3ccc(C(=O)N[C@@H](CCC(=O)O)C(=O)O)cc3)c[nH]c2n1 [Form IV, disodium N-[4-[2-(2-amino-4,7-dihydro-4-oxo-3H-pyrrolo[2,3-d]-pyrimidin-5-yl)ethyl]benzoyl]-L-glutamic acid salt]
- HPLC-purity (10.5 min) ([1]; 2 d): 99.70%
- PXRD ([1]; 2 d): Form IV
- HPLC-purity (10.5 min) ([1]; 9 d): 99.80%
- change in water content upon vacuum drying (in words) ([1]; after 9 d): no significant change
- change in HPLC-purity upon vacuum drying (in words) ([1]; listed as Pemetrexed Disodium Form IV): no significant change
- change in water content (in words) ([2]; 5% to 12% rel. humidity (for Form A and Form IV: 7% to 12%), up to 16 d, listed as Pemetrexed Disodium Form IV): does not show significant change
- H2O (KFT) [2, 6]: 1.0%
- HPLC-purity (10.5 min) [2, 6]: 99.66%
- PXRD [2, 6]: Form IV
- HPLC-purity (10.5 min) [2, 7]: 99.60%
- PXRD [2, 7]: Form IV
- HPLC-purity (10.5 min) [2, 8]: 99.83%
- PXRD [2, 8]: Form IV
- HPLC-purity [2, 9]: 99.88%
- PXRD [2, 9]: Form IV
- change in water content (in words) ([2]; 27% to 33% rel. humidity, up to 16 d, listed as Pemetrexed Disodium Form IV): does not show significant change
- HPLC-purity [2, 10]: 99.81%
- PXRD [2, 10]: Form IV
- HPLC-purity [2, 11]: 99.73%
- PXRD [2, 11]: Form IV
- HPLC-purity [2, 12]: 99.82%
- PXRD [2, 12]: Form IV
- HPLC-purity [2, 13]: 99.86%
- PXRD [2, 13]: Form D
- HPLC-purity [2, 14]: 99.84%
- PXRD [2, 14]: Form IV
- HPLC-purity [2, 15]: 99.78%
- PXRD [2, 15]: Form IV
- HPLC-purity [2, 16]: 99.76%
- PXRD [2, 16]: Form IV
- PXRD ([2]; 39% to 50% relative humidity, 9 d, measured 48% (Form A 47%), 24° C., listed as Pemetrexed Disodium Form IV): without significant change
- HPLC-purity [2, 17]: 99.81%
- PXRD ([2]; 39% to 50% relative humidity, 16 d, measured 47.3% (Form A 46.4%), 24° C., listed as Pemetrexed Disodium Form IV): traces of Pemetrexed Disodium Heptahydrate
- change in water content (in words) ([2]; 40% to 50% rel. humidity, up to 16 d, listed as Pemetrexed Disodium Form IV): slight increase
- change in water content (in words) ([2]; 60% to 70% rel. humidity, after 2 d): significant increase
- HPLC-purity [2, 18]: 99.83%
- PXRD ([2]; 60% to 70% relative humidity, 2 d, measured 61%, 22° C. (Form A 54%, 23° C), listed as Pemetrexed Disodium Form IV): partial transformation to Pemetrexed Disodium Heptahydrate
- HPLC-purity [2, 19]: 99.75%
- PXRD [2, 19]: Heptahydrate
- PXRD ([2]; 60% to 70% relative humidity, 5 d, measured 63% (Form A 57%), 24° C., listed as Pemetrexed Disodium Form IV): Transformation to Pemetrexed Disodium Heptahydrate is complete
- HPLC-purity [2, 20]: 99.85%
- PXRD [2, 20]: Heptahydrate
- HPLC-purity [2, 21]: 99.81%
- PXRD [2, 21]: Heptahydrate
- change in HPLC purity in any of the samples (in words) ([2]; up to 16 d): No significant change
- HPLC-purity ([3]; daylight study, Start): 99.83%
- change in HPLC purity in the presence of light (in words) [3, 22]: slight decrease
- change in color in the presence of light (in words) [3, 22]: without significant change
- HPLC-purity [3, 23]: 99.44%
- HPLC-purity (10.5 min) [4]: 99.85%
- PXRD [4]: Form IV

SMILES: Nc1nc(O)c2c(CCc3ccc(C(=O)N[C@@H](CCC(=O)O)C(=O)O)cc3)c[nH]c2n1 [Heptahydrate, disodium N-[4-[2-(2-amino-4,7-dihydro-4-oxo-3H-pyrrolo[2,3-d]-pyrimidin-5-yl)ethyl]benzoyl]-L-glutamic acid salt]
- HPLC-purity (10.5 min) ([1]; 2 d): 99.86%
- PXRD ([1]; 2 d): 2.5 hydrate
- H2O (KFT) [1, 24]: 8.4%
- PXRD [1, 24]: only 2.5 hydrate
- HPLC-purity (10.5 min) ([1]; 9 d): 99.80%
- change in HPLC-purity upon vacuum drying (in words) ([1]; listed as Pemetrexed Disodium Heptahydrate): No significant change
- H2O (KFT) [2, 6]: 19.7%
- HPLC-purity (10.5 min) [2, 6]: 99.70%
- HPLC-purity (10.5 min) [2, 7]: 99.73%
- HPLC-purity (10.5 min) [2, 8]: 99.86%
- HPLC-purity [2, 9]: 99.88%
- PXRD ([2]; 5% to 12% relative humidity, 16 d, measured 8.5% (Form A 5.8%), 24° C., listed as Pemetrexed Disodium Heptahydrate): almost complete transformation to Pemetrexed Disodium 2.5 hydrate
- HPLC-purity [2, 10]: 99.74%
- HPLC-purity [2, 11]: 99.62%
- HPLC-purity [2, 12]: 99.84%
- HPLC-purity [2, 13]: 99.91%
- PXRD [2, 13]: Heptahydrate
- HPLC-purity [2, 14]: 99.84%
- HPLC-purity [2, 15]: 99.78%
- PXRD [2, 15]: Heptahydrate
- HPLC-purity [2, 16]: 99.81%
- PXRD [2, 16]: Heptahydrate
- HPLC-purity [2, 17]: 99.91%
- PXRD [2, 17]: Heptahydrate
- HPLC-purity [2, 18]: 99.63%
- HPLC-purity [2, 19]: 99.81%
- PXRD [2, 19]: Heptahydrate
- HPLC-purity [2, 20]: 99.81%
- PXRD [2, 20]: Heptahydrate
- HPLC-purity [2, 21]: 99.90%
- PXRD [2, 21]: Heptahydrate
- change in HPLC purity in any of the samples (in words) ([2]; up to 16 d): No significant change
- HPLC-purity ([3]; daylight study, Start): 99.63%
- change in HPLC purity in the presence of light (in words) ([3]; daylight): do not show significant changes
- change in color in the presence of light (in words) ([3]; daylight): do not show significant changes
- HPLC-purity [3, 23]: 99.65%
- HPLC-purity (10.5 min) [4]: 99.90%

SMILES: Nc1nc(O)c2c(CCc3ccc(C(=O)N[C@@H](CCC(=O)O)C(=O)O)cc3)c[nH]c2n1 [disodium salt II, disodium N-[4-[2-(2-amino-4,7-dihydro-4-oxo-3H-pyrrolo[2,3-d]-pyrimidin-5-yl)ethyl]benzoyl]-L-glutamic acid salt]
- hygroscopicity (in words) [5]: hygroscopic solid
